Data: ChEMBL document CHEMBL1139929, “Penicillin-bound polyacrylate nanoparticles: restoring the activity of beta-lactam antibiotics against MRSA” (2007)
In brackets after ≈: the same amount, converted by molar mass.

Key:
Staphylococcus aureus [1] = assay: Antibacterial activity against Staphylococcus aureus ATCC 25923 after 24 hrs by broth dilution assay; format: functional; conditions: ATCC 25923, 24 h
Staphylococcus aureus [2] = assay: Antibacterial activity against methicillin-resistant Staphylococcus aureus ATCC 43300 after 24 hrs by broth dilution assay; format: functional; conditions: ATCC 43300, 24 h

CC1(C)S[C@@H]2[C@H](NC(=O)Cc3ccccc3)C(=O)N2[C@H]1C(=O)O [PENICILLIN G]
MIC (Staphylococcus aureus [1]): 0.012 µg/mL (≈ 0.0359 µM)
MIC (Staphylococcus aureus [2]): 16 µg/mL (≈ 47.8 µM)
